Data taken from patent US20150284689A1, “STRATEGY FOR ENGINEERING VARIOUS 3D TISSUES, ORGANOIDS AND VASCULATURE” (THE REGENTS OF THE UNIVERSITY OF CALIFORNIA, priority 2012, published 2015).

Key:
[1] = system: isolated ureteric bud, Wolffian duct bud; test: isolated ureteric bud / Wolffian duct culture in biocompatible matrix, branching morphogenesis; type: cell-based; conditions: isolated UB/WD separated from MM, in Matrigel/collagen gel
Source text: This isolated cell culture system can serve as a powerful assay system since it directly assesses the effect of soluble factors on cell morphogenesis and tubulogenesis.
As discussed herein, the disclosure provides methods and compositions whereby isolated budding epethelia (e.g., UBs, WDs, or UBs and WDs) can be co-cultured and stimulated by extrinsic factors to induce branching. These branching buds can then be combined with a tissue specific mesenchymal cell population to develop a desired tissue (e.g., combined with metanephric mesenchyme to produce kidney tissue). For example, whole isolated intact UB, WD, or UB and ND (cleanly separated from surrounding MM) can be induced to undergo branching morphogenesis in vitro in a manner similar to UB, WD, or UB and WD culture. Suspension of the isolated UBs, WDs, or UBs and WDs within, or on, a natural or artificial biocompatible substrate (e.g., Matrigel/collagen gel) and when exposed to a mixture of mesenchyme-cultured media augmented with GDNF, results in the isolated unbranched UB, WD, or UB and WD rapidly forming a polarized, extensively branched structure with an internal lumen. […] This modulation is typically branch-promoting, elongation promoting, or branch-inhibiting.
The culture system and methods of the disclosure provide toe ability to propagate the isolated UB, WD, or UB and WD in vitro through several generations. For example, isolated stem cells, UB, WD, or any combination thereof are cultured in vitro and induced to undergo branching morphogenesis in the presence of BSN-CM or pleiotrophin and GDNF or pleiotrphin, FGF1, and GDNF. After 8 days, the cultured bud is subdivided into approximate 3rds and re-suspended within a suitable biocompatible matrix (matrigel/collagen gel). This 2nd generation bud is further subdivided after another 8 days of culture and the 3rd generation bud is cultured for 8 days (thus yielding at least 9 subdivided buds from one progenitor bud) (e.g., see FIG. 9A-B). These subsequent clonal generations of cultured UB, WD, or UB and WD retain the ability of the progenitor bud to induce mesenchyme upon in vitro recombination. The buds also retained the capacity to form cohesive conduits with the mesenchymally-derived tubules that they induced. Thus, the disclosure provides the ability to develop and propagate a clonal, expanded, and long-lived colony of ureteric bud, Wolffian duct bud, or ureteric and Wolffian duct buds, derived from a single progenitor bud that retains the properties of the progenitor. Using similar techniques with the MM, it is possible to develop colonies of mesenchyme derived from a single progenitor mesenchyme that can then be recombined with a propagated UB, WD, or UB and WD.

cultured mesenchyme = test: cultured isolated mesenchyme, induction/differentiation; type: cell-based; conditions: isolated mesenchyme cultured in vitro
MDCK and mIMCD cells = conditions: three-dimensional cultures of MDCK and mIMCD cells; cited from earlier work

Endostatin
effect on branching morphogenesis of isolated UB, WD [1]: selectively inhibits branching of the UB, WD, or UB and WD

FGF1: fibroblast growth factor-1
effect on branching morphogenesis of isolated UB, WD [1]: induced the formation of elongated stern cells, UB, ND, or any combination thereof branching stalks

FGF2: growth factor present in UB/WD conditioned media
effect on cultured mesenchyme (mesenchymal-to-epithelial transformation, survival, differentiation) (cultured mesenchyme): appear to promote survival but not differentiation of mesenchyme

HGF: Hepatocyte growth factor
formation of branching tubular structures with lumens (MDCK and mIMCD cells): induce the formation of branching tubular structures with lumens

LIF: leukemia-inhibitory factor, isolated from UB, WD conditioned media
effect on cultured mesenchyme (mesenchymal-to-epithelial transformation, survival, differentiation) (cultured mesenchyme): induce mesenchymal-to-epithelial transformation of cultured mesenchyme

B1: FGF7: fibroblast growth factor-7 (protein, UniProt P21781 32-194, looked up)
Fibroblast growth factor 7: CNDMTPEQMATNVNCSSPERHTRSYDYMEGGDIRVRRLFCRTQWYLRIDKRGKVKGTQEMKNNYNIMEIRTVAVGIVAIKGVESEFYLAMNKEGKLYAKKECNEDCNFKELILENHYNTYASAKWTHNGGEMFVALNQKGIPVRGKKTKKEQKTAHFLPMAIT
effect on branching morphogenesis of isolated UB, WD [1]: induced amorphous buds displaying nonselective proliferation with little distinction between stalks and ampullae

B2: pleiotrophin: polypeptide in active morphogenetic fraction of BSN-CM; fibroblast proliferative and neurite outgrowth-promoting factor (protein, UniProt P21246 33-168, looked up)
Pleiotrophin: GKKEKPEKKVKKSDCGEWQWSVCVPTSGDCGLGTREGTRTGAECKQTMKTQRCKIPCNWKKQFGAECKYQFQAWGECDLNTALKTRTGSLKRALHNAECQKTVTISKPCGKLTKPKPQAESKKKKKEGKKQEKMLD
effect on branching morphogenesis of isolated UB, WD [1]: induces branching morphogenesis of the whole ureteric bud, Wolffian duct bud, or ureteric and Wolffian duct bud
